The compounds below were run against T1, WT BTK protein (Homo sapiens, UniProt Q06187) (assay: BTK protein degradation assay (Western blotting), WT BTK). Details: concentration range accounting for 50% degradation of WT BTK protein, TMD-8 or RAMOS cells, 24 hours.
T1 construct: measured for intracellular BTK protein levels by Western blotting; endogenous in cells; host or cells: TMD-8 or RAMOS cells
Format: cell-based
In short: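 TMD-8 cells (1×10^6 cells/mL) treated 24 h with compound serial dilutions, then lysed in RIPA. Equal protein loads analysed by Western blot for BTK with GAPDH/β-actin as loading controls; activity binned by concentration giving 50% WT BTK degradation.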

T1 sequence (Q06187 whole entry): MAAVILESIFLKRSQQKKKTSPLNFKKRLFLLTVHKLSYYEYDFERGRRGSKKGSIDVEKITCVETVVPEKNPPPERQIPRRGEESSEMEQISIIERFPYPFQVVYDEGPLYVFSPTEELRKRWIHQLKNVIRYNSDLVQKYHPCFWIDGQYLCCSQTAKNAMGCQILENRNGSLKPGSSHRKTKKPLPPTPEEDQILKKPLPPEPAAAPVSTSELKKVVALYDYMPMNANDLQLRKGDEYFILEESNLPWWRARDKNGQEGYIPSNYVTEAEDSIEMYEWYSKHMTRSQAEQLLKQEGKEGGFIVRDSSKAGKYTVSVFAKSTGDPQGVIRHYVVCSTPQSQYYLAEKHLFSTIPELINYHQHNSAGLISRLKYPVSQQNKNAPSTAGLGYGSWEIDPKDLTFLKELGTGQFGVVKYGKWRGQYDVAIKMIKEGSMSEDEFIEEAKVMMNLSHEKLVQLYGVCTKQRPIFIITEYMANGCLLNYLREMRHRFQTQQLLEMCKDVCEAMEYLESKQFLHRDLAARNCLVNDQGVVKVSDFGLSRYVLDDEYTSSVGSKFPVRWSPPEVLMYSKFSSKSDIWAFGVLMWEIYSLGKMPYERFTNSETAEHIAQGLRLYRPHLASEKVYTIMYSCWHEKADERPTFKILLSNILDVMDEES

| Structure (SMILES) | DC50 |
| --- | --- |
| Cc1cccc(C)c1Nc1nn(C)c2nc(Nc3ccc4c(c3)CN(C(=O)CN3CCC(Oc5ccc6c(c5)C(=O)N(C5CCC(=O)NC5=O)C6)CC3)CC4)ncc12 (stereo not shown) [Compound 117, 3-(6-((1-(2-(7-((3-((2,6-dimethylphenyl)amino)-1-methyl-TH-pyrazolo[3,4-d]pyrimidin-6-yl)amino)-3,4-dihydroisoquinolin-2 (1H)-yl)-2-oxoethyl)piperidin-4-yl)oxy)-1-oxoisoindolin-2-yl)piperidin-2,6-one] | 1000 to 10000 nM |
| COc1ccc(Nc2nn(C)c3nc(Nc4ccc5c(c4)CN(CC4CCN(c6ccc7c(c6)C(=O)N(C6CCC(=O)NC6=O)C7=O)CC4)CC5)ncc23)c(C)c1 (stereo not shown) [Compound 118, 2-(2,6-Dioxopiperidin-3-yl)-5-(4-((7-((3-((4-methoxy-2-methylphenyl)amino)-1-methyl-1H-pyrazolo[3,4-d]pyrimidin-6-yl)amino)-3,4-dihydroisoquinolin-2 (1H)-yl)methyl)piperidin-1-yl)isoindoline-1,3-dione] | 1000 to 10000 nM |
| Cc1cc(F)ccc1Nc1nn(C)c2nc(Nc3ccc4c(c3)CN(CC3CCN(c5ccc6c(c5)C(=O)N(C5CCC(=O)NC5=O)C6=O)CC3)CC4)ncc12 (stereo not shown) [Compound 121, 2-(2,6-Dioxopiperidin-3-yl)-5-(4-((7-((3-((4-fluoro-2-methylphenyl)amino)-1-methyl-1H-pyrazolo[3,4-d]pyrimidin-6-yl)amino)-3,4-dihydroisoquinolin-2 (1H)-yl)methyl)piperidin-1-yl)isoindoline-1,3-dione] | 10 to 1000 nM |
| Cc1cc(NC(=O)c2cccc(C(F)(F)F)c2)ccc1Nc1nn(C)c2nc(Nc3ccc4c(c3)CN(CC3CCN(c5ccc6c(c5)C(=O)N(C5CCC(=O)NC5=O)C6=O)CC3)CC4)ncc12 (stereo not shown) [Compound 122, N-(4-((6-((2-((1-(2-(2,6-Dioxopiperidin-3-yl)-1,3-dioxoisoindolin-5-yl)piperidin-4-yl)methyl)-1,2,3,4-tetrahydroisoquinolin-7-yl)amino)-1-methyl-1H-pyrazolo[3,4-d]pyrimidin-3-yl)amino)-3-methylphenyl)-3-(trifluoromethyl)benzamide] | 10 to 1000 nM |
| Cc1cccc(C)c1Nc1nn(C)c2nc(Nc3ccc4c(c3)CN(CCNc3ccc5c(c3)C(=O)N(C3CCC(=O)NC3=O)C5=O)CC4)ncc12 (stereo not shown) [Compound 123, 5-((2-(7-((3-((2,6-Dimethylphenyl)amino)-1-methyl-1H-pyrazolo[3,4-d]pyrimidin-6-yl)amino)-3,4-dihydroisoquinolin-2 (1H)-yl)ethyl)amino)-2-(2,6-dioxopiperidin-3-yl)isoindoline-1,3-dione] | 10 to 1000 nM |
| Cc1cccc(C)c1Nc1nn(C)c2nc(Nc3ccc4c(c3)CN(C(=O)C3CC5(CCN(c6ccc7c(c6)C(=O)N(C6CCC(=O)NC6=O)C7=O)CC5)C3)CC4)ncc12 (stereo not shown) [Compound 124, 5-(2-(7-((3-((2,6-dimethylphenyl)amino)-1-methyl-1H-pyrazolo[3,4-d]pyrimidin-6-yl)amino)-1,2,3,4-tetrahydroisoquinoline-2-carbonyl)-7-azaspiro[3.5]nonan-7-yl)-2-(2,6-dioxopiperidin-3-yl)isoindoline-1,3-dione] | 0.1 to 10 nM |
| Cc1cccc(C)c1Nc1nn(C)c2nc(Nc3ccc4c(c3)CN(C(=O)CC3CCN(c5ccc6c(c5)C(=O)N(C5CCC(=O)NC5=O)C6=O)CC3)CC4)ncc12 (stereo not shown) [Compound 125, 5-(4-(2-(7-((3-((2,6-Dimethylphenyl)amino)-1-methyl-1H-pyrazolo[3,4-d]pyrimidin-6-yl)amino)-3,4-dihydroisoquinolin-2 (1H)-yl)-2-oxoethyl)piperidin-1-yl)-2-(2,6-dioxopiperidin-3-yl)isoindoline-1,3-dione] | 0.1 to 10 nM |
| Cc1cccc(C)c1Nc1nn(C)c2nc(Nc3ccc4c(c3)CN(C(=O)CCC3CCN(c5ccc6c(c5)C(=O)N(C5CCC(=O)NC5=O)C6=O)CC3)CC4)ncc12 (stereo not shown) [Compound 126, 5-(4-(3-(7-((3-((2,6-Dimethylphenyl)amino)-1-methyl-1H-pyrazolo[3,4-d]pyrimidin-6-yl)amino)-3,4-dihydroisoquinolin-2 (1H)-yl)-3-oxopropyl)piperidin-1-yl)-2-(2,6-dioxopiperidin-3-yl)isoindoline-1,3-dione] | 0.1 to 10 nM |

The next lines start with the values.

| DC50 | Structure (SMILES) |
| --- | --- |
| 0.1 to 10 nM | Cc1cccc(C)c1Nc1nn(C)c2nc(Nc3ccc4c(c3)CN(C(=O)COC3CCN(c5ccc6c(c5)C(=O)N(C5CCC(=O)NC5=O)C6=O)CC3)CC4)ncc12 (stereo not shown) [Compound 127, 5-(4-(2-(7-((3-((2,6-Dimethylphenyl)amino)-1-methyl-1H-pyrazolo[3,4-d]pyrimidin-6-yl)amino)-3,4-dihydroisoquinolin-2 (1H)-yl)-2-oxoethoxy)piperidin-1-yl)-2-(2,6-dioxopiperidin-3-yl)isoindoline-1,3-dione] |
| 0.1 to 10 nM | Cc1cccc(C)c1Nc1nn(C)c2nc(Nc3ccc4c(c3)CN(C(=O)[C@H]3CC[C@H](OC5CCN(c6ccc7c(c6)C(=O)N(C6CCC(=O)NC6=O)C7=O)CC5)CC3)CC4)ncc12 (stereo partly shown) [Compound 128, 5-(4-(((1r,4r)-4-(7-((3-((2,6-dimethylphenyl)amino)-1-methyl-H-pyrazolo[3,4-d]pyrimidin-6-yl)amino)-1,2,3,4-tetrahydroisoquinoline-2-carbonyl)cyclohexyl)oxy)piperidin-1-yl)-2-(2,6-dioxopiperidin-3-yl)isoindoline-1,3-dione] |
| 0.1 to 10 nM | Cc1cccc(C)c1Nc1nn(C)c2nc(Nc3ccc4c(c3)CN(C(=O)CC3(O)CCN(c5ccc6c(c5)C(=O)N(C5CCC(=O)NC5=O)C6=O)CC3)CC4)ncc12 (stereo not shown) [Compound 129, 5-(4-(2-(7-((3-((2,6-dimethylphenyl)amino)-1-methyl-1H-pyrazolo[3,4-d]pyrimidin-6-yl)amino)-3,4-dihydroisoquinolin-2 (1H)-yl)-2-oxoethyl)-4-hydroxypiperidin-1-yl)-2-(2,6-dioxopiperidin-3-yl)isoindoline-1,3-dione] |
| 0.1 to 10 nM | Cc1cccc(C)c1Nc1nn(C)c2nc(Nc3ccc4c(c3)CN(CC3(O)CCN(c5ccc6c(c5)C(=O)N(C5CCC(=O)NC5=O)C6=O)CC3)CC4)ncc12 (stereo not shown) [Compound 130, 5-(4-((7-((3-((2,6-dimethylphenyl)amino)-1-methyl-1H-pyrazolo[3,4-d]pyrimidin-6-yl)amino)-3,4-dihydroisoquinolin-2 (1H)-yl)methyl)-4-hydroxypiperidin-1-yl)-2-(2,6-dioxopiperidin-3-yl)isoindoline-1,3-dione] |
| 0.1 to 10 nM | Cc1cccc(C)c1Nc1nn(C)c2nc(Nc3ccc4c(c3)CN(CCC3(O)CCN(c5ccc6c(c5)C(=O)N(C5CCC(=O)NC5=O)C6=O)CC3)CC4)ncc12 (stereo not shown) [Compound 131, 5-(4-(2-(7-((3-((2,6-Dimethylphenyl)amino)-1-methyl-1H-pyrazolo[3,4-d]pyrimidin-6-yl)amino)-3,4-dihydroisoquinolin-2 (1H)-yl)ethyl)-4-hydroxypiperidin-1-yl)-2-(2,6-dioxopiperidin-3-yl)isoindoline-1,3-dione] |
| 0.1 to 10 nM | Cc1cccc(C)c1Nc1nn(C)c2nc(Nc3ccc4c(c3)CN(CC3CCN(c5ccc6c(n5)CN(C5CCC(=O)NC5=O)C6=O)CC3)CC4)ncc12 (stereo not shown) [Compound 132, 3-(2-(4-((7-((3-((2,6-dimethylphenyl)amino)-1-methyl-1H-pyrazolo[3,4-d]pyrimidin-6-yl)amino)-3,4-dihydroisoquinolin-2 (1H)-yl)methyl)piperidin-1-yl)-5-oxo-5,7-dihydro-6H-pyrrolo[3,4-b]pyridin-6-yl)piperidin-2,6-one] |
| 0.1 to 10 nM | Cc1cccc(C)c1Nc1nn(C)c2nc(Nc3ccc4c(c3)CN(CC3(O)CCN(c5ccc6c(n5)CN(C5CCC(=O)NC5=O)C6=O)CC3)CC4)ncc12 (stereo not shown) [Compound 133, 3-(2-(4-((7-((3-((2,6-Dimethylphenyl)amino)-1-methyl-1H-pyrazolo[3,4-d]pyrimidin-6-yl)amino)-3,4-dihydroisoquinolin-2 (1H)-yl)methyl)-4-hydroxypiperidin-1-yl)-5-oxo-5,7-dihydro-6H-pyrrolo[3,4-b]pyridin-6-yl)piperidin-2,6-one] |
| 0.1 to 10 nM | Cc1cccc(C)c1Nc1nn(C)c2nc(Nc3ccc(N4CCN(CC5CCN(c6ccc7c(c6)C(=O)N(C6CCC(=O)NC6=O)C7=O)CC5)CC4)nc3)ncc12 (stereo not shown) [Compound 134, 5-(4-((4-(5-((3-((2,6-Dimethylphenyl)amino)-1-methyl-1H-pyrazolo[3,4-d]pyrimidin-6-yl)amino)pyridin-2-yl)piperazin-1-yl)methyl)piperidin-1-yl)-2-(2,6-dioxopiperidin-3-yl)isoindoline-1,3-dione] |
| 0.1 to 10 nM | Cc1cccc(C)c1Nc1nn(C)c2nc(Nc3ccc(N4CCC(CN5CCN(c6ccc7c(c6)C(=O)N(C6CCC(=O)NC6=O)C7=O)CC5)CC4)nc3)ncc12 (stereo not shown) [Compound 135, 5-(4-((1-(5-((3-((2,6-Dimethylphenyl)amino)-1-methyl-1H-pyrazolo[3,4-d]pyrimidin-6-yl)amino)pyridin-2-yl)piperidin-4-yl)methyl)piperazin-1-yl)-2-(2,6-dioxopiperidin-3-yl)isoindoline-1,3-dione] |
| 0.1 to 10 nM | Cc1cccc(C)c1Nc1nn(C)c2nc(Nc3cccc(N4CCN(CC5CCN(c6ccc7c(c6)C(=O)N(C6CCC(=O)NC6=O)C7=O)CC5)CC4)c3)ncc12 (stereo not shown) [Compound 136, 5-(4-((4-(3-((3-((2,6-dimethylphenyl)amino)-1-methyl-1H-pyrazolo[3,4-d]pyrimidin-6-yl)amino)phenyl)piperazin-1-yl)methyl)piperidin-1-yl)-2-(2,6-dioxopiperidin-3-yl)isoindoline-1,3-dione] |
| 0.1 to 10 nM | Cc1cccc(C)c1Nc1nn(C)c2nc(Nc3ccc4c(c3)CN(CC3CCN(c5ccc(C(=O)NC6CCC(=O)NC6=O)nc5)CC3)CC4)ncc12 (stereo not shown) [Compound 137, 5-(4-((7-((3-((2,6-Dimethylphenyl)amino)-1-methyl-1H-pyrazolo[3,4-d]pyrimidin-6-yl)amino)-3,4-dihydroisoquinolin-2 (1H)-yl)methyl)piperidin-1-yl)-N-(2,6-dioxopiperidin-3-yl)picolinamide] |
